The values that follow come from PMC5676566 (Nature chemical biology, 2017).

This assay deals with BG505 Env (pseudovirus) (Human immunodeficiency virus 1, UniProt Q2N0S5). In words: pseudovirus neutralization, TZM-bl cells, luciferase. It counts as cell-based. The settings on record: 1% DMSO; separate panel assay printed too (Supplementary Table 1).

As to `COc1ccnc2[nH]cc(C(=O)C(=O)N3CCN(C(=O)c4ccccc4)C[C@H]3C)c12` [BMS-378806], the IC50 is recorded as 1190 nM.
